This assay has as its system patients with relapsed or refractory AML. The assay can be described thus: Open label, multicenter, non-comparative phase 2 clinical study of tipifarnib with gene expression profiling. The class given is in vivo, human. The method, then:
The current study was part of an open label, multicenter, non-comparative phase 2 clinical study in which patients with relapsed or refractory AML (Harousseau et al. (2003)) were treated with tipifarnib at a starting oral dose of 600 mg bid for the first 21 consecutive days of each 28-day cycle. Patients were enrolled into 2 cohorts, those with relapsed AML and those with refractory AML. A total of 252 patients (135 relapsed and 117 refractory) were treated. Eighty patients chose to provide bone marrow samples for RNA microarray analysis, for which a separate informed consent was required. […] Complete remission with incomplete platelet recovery was defined similarly, except for a platelet count less than 100,000/µL sufficient to ensure transfusion independence. Partial remission was defined as at least a 50% decrease in bone marrow blasts with partial neutrophil (>500/µL) and platelet count (>50,000/µL) recovery. Response had to be confirmed at least 4 weeks after first documentation.
The current study was an open label, multicenter, non-comparative Phase 2 study investigating the efficacy and safety of farnesyl transferase inhibition with tipifarnib administered as a single agent, at a starting oral dose of 600 mg b.i.d. for the first 21 days of each 28 day cycle in AML. Subjects were enrolled into two cohorts, those with relapsed AML and those with refractory AML. A total of 252 patients (135 relapsed and 117 refractory) were treated.

SMILES strings stand for the structures.

Turning to `Cn1cncc1[C@@](N)(c1ccc(Cl)cc1)c1ccc2c(c1)c(-c1cccc(Cl)c1)cc(=O)n2C` [tipifarnib], the response rate was found to be 18% (current patient population (10/54), stable disease patients excluded); 24% (entire group of 58 profiled patients (14/58), response includes objective response, hematological response or stable disease); 31% (patients with low expression of AKAP13 (8/26), stable disease patients excluded); 43% (patients with low expression of the AKAP13 gene (13/30), LOOCV, 58 samples); 48% (patients with the 3-gene signature (AHR, AKAP13, MINA53) (12/25), LOOCV).

The record behind these values is patent publication EP1612281A2, “Methods for assessing patients with acute myeloid leukemia” (Veridex, LLC, priority 2004, dated 2006).
